Data: US9000186B2, “Ring-fused heterocyclic derivative” (Kyowa Hakko Kirin Co., Ltd., priority 2011, dated 2015)
Where two headings read alike, the source gives them in different places.

Tests used:
[1] = molecular target: T1, human Cav3.2 T-type Ca2+ channel (Homo sapiens, UniProt O95180); assay: Inhibitory effect for intracellular calcium response via Cav3.2 T-type Ca2+ channels (FLIPR Calcium 3 Assay Kit); format: cell-based
T1 construct: expressed in transfected cells; host or cells: KJMGER8 cells (Namalwa cell-derived cell line)

[2] = test system: morphine-induced pruritus mice; assay: Inhibitory effect for pruritus in morphine-induced pruritus mice; format: in vivo, male ddY mice; settings: oral, dose of 30 mg/kg or less, 30 minutes before intrathecal morphine (1 nmol/5 μL); scratching counted for 30 minutes
Procedure: Morphine (1 nmol/5 μL, dissolved in physiological saline) or physiological saline was intrathecally administered between the fifth and sixth lumbar vertebrae of male ddY mice using a microsyringe fitted with a 30-gauge injection needle. Mice administered with only morphine were used as a control group, and mice administered with only physiological saline as a physiological saline-administered group.
After the morphine administration, the number of scratching behavior with the hind legs which observed immediately in the mice was measured for 30 minutes. Because mice show a rapid, continuous scratching behavior in each scratching behavior, a series of such behavior was counted as a single scratching behavior.
The test compounds were administered 30 minutes before the morphine administration. Each test compound was suspended in a 0.5% methylcellulose solution, and orally administered in 10 mL/kg volume.

[3] = human Cav3.2-expressing KJMGER8 cells (Namalwa-derived), calcium response induced by 5 mmol/L CaCl2, normalised to 3 μmol/L mibefradil, read-out: IC50 for the human Cav3.2 T-type Ca2+ current

T1 sequence (O95180 whole entry): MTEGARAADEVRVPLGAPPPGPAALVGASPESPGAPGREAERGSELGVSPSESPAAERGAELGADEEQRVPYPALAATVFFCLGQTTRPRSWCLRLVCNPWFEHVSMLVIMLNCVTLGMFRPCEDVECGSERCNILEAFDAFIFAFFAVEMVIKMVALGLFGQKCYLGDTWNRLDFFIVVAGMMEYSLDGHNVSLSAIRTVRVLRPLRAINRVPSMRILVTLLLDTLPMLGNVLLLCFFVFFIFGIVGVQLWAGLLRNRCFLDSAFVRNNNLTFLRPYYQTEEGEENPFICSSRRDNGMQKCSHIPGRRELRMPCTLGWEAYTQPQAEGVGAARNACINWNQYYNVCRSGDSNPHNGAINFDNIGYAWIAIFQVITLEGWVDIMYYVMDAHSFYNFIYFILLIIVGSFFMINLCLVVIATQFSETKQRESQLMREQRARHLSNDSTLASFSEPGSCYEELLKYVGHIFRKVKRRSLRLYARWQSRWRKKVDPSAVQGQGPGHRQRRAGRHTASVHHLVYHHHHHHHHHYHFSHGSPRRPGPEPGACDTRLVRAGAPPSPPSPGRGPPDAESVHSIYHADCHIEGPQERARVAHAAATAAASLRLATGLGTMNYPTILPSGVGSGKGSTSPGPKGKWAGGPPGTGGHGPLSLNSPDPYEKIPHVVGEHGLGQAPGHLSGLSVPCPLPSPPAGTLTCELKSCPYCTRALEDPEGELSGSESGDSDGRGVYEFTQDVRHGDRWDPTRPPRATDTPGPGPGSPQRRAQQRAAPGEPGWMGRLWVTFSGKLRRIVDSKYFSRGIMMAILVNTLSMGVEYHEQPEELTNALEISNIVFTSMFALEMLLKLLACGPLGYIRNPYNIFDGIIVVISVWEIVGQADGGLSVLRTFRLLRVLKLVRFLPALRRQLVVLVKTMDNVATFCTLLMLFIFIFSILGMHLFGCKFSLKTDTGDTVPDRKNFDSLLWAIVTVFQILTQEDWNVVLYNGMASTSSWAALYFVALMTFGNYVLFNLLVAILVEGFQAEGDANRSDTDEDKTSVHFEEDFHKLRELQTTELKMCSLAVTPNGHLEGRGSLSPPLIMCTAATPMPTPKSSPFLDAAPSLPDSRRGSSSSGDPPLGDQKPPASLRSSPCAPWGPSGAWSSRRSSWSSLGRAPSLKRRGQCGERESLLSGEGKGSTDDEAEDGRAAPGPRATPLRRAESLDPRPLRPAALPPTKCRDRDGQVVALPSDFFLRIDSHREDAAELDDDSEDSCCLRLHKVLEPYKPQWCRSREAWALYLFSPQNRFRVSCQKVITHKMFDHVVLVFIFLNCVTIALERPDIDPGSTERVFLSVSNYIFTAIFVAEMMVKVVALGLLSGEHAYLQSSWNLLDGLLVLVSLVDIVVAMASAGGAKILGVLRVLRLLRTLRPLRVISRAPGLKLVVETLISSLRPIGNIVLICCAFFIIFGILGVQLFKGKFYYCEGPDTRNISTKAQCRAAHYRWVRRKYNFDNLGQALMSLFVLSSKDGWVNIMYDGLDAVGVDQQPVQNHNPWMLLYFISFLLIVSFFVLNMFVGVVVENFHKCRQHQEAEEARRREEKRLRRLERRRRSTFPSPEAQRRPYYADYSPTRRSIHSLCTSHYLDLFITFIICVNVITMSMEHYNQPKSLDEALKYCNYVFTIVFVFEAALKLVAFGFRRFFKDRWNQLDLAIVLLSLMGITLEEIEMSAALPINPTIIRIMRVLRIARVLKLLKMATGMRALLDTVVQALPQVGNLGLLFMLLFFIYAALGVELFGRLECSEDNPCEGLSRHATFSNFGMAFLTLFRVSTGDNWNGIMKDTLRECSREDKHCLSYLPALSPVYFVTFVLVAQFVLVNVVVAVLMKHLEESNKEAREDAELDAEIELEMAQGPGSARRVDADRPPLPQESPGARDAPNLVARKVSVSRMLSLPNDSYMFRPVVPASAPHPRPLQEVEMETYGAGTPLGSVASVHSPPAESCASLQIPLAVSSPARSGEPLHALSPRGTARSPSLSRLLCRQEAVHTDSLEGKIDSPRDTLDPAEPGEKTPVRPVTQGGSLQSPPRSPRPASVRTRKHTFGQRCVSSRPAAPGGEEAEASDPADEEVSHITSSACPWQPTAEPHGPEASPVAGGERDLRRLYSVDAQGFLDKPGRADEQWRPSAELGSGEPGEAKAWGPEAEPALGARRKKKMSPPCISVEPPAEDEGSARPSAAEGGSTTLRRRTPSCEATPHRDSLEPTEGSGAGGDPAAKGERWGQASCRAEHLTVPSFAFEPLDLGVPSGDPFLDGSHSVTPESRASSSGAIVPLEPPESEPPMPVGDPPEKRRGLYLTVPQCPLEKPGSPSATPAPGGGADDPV

| Structure (SMILES) | IC50 [1] | increase of the scratching behavior observed in the morphine-induced pruritus mice [2] | IC50 [1, 3] |
| --- | --- | --- | --- |
| Cc1cc(C(=O)NCC2CCOC2)cc2nc(C(F)(F)F)c(CC3CCC(F)(F)CC3)n12 (stereo not shown) [Compound 80, 3-(4,4-Difluorocyclohexylmethyl)-N-{(tetrahydrofuran-3-yl)methyl}-5-methyl-2-trifluoromethylimidazo[1,2-a]pyridine-7-carboxamide] | < 100 nM | inhibited | – |
| CC(C)(C)c1nc2cc(C(=O)NC3CCOCC3)c(Cl)cn2c1CC1CCC(F)(F)CC1 [Compound 113, 2-tert-Butyl-6-chloro-3-(4,4-difluorocyclohexylmethyl)-N-(tetrahydro-2H-pyran-4-yl)imidazo[1,2-a]pyridine-7-carboxamide] | < 100 nM | inhibited | – |
| O=C(NC1CCOCC1)c1cc2nc(C(F)(F)F)c(CC3CCC(F)(F)CC3)n2cc1Cl [Compound 108, 6-Chloro-3-(4,4-difluorocyclohexylmethyl)-N-(tetrahydro-2H-pyran-4-yl)-2-trifluoromethylimidazo[1,2-a]pyridine-7-carboxamide] | < 100 nM | inhibited | – |
| O=C(Nc1ccncc1)c1ccn2c(CC3CCCCC3)c(C(F)(F)F)nc2c1 [Compound 35, 3-Cyclohexylmethyl-N-(pyridin-4-yl)-2-trifluoromethylimidazo[1,2-a]pyridine-7-carboxamide] | < 100 nM | inhibited | – |
| Cc1cc(C(=O)NC2CCC(O)CC2)cc2nc(C(F)(F)F)c(CC3CCC(F)(F)CC3)n12 (stereo not shown) [Compound 70, 3-(4,4-Difluorocyclohexylmethyl)-N-(4-hydroxycyclohexyl)-5-methyl-2-trifluoromethylimidazo[1,2-a]pyridine-7-carboxamide] | < 100 nM | inhibited | – |
| Cc1cc(C(=O)NCC(C)(C)O)cc2nc(C(F)(F)F)c(CC3CCC(F)(F)CC3)n12 [Compound 78, 3-(4,4-Difluorocyclohexylmethyl)-N-(2-hydroxy-2-methylpropyl)-5-methyl-2-trifluoromethylimidazo[1,2-a]pyridine-7-carboxamide] | < 100 nM | inhibited | – |
| CC1(NC(=O)c2ccn3c(CC4CCC(F)(F)CC4)c(C(F)(F)F)nc3c2)CCOCC1 [Compound 52, 3-(4,4-Difluorocyclohexylmethyl)-N-(4-methyltetrahydro-2H-pyran-4-yl)-2-trifluoromethylimidazo[1,2-a]pyridine-7-carboxamide] | < 100 nM | inhibited | – |
| Cc1cc(C(=O)NC2CCOCC2)cc2nc(C3(C)CC3)c(CC3CCC(F)(F)CC3)n12 [Compound 100, 3-(4,4-Difluorocyclohexylmethyl)-5-methyl-2-(1-methylcyclopropyl)-N-(tetrahydro-2H-pyran-4-yl)imidazo[1,2-a]pyridine-7-carboxamide] | < 100 nM | inhibited | – |
| CC(C)(C)c1nc2cc(C(=O)Nc3ccncc3)ccn2c1CC1CCC(F)(F)CC1 [Compound 34, 2-tert-Butyl-3-(4,4-difluorocyclohexylmethyl)-N-(pyridin-4-yl)imidazo[1,2-a]pyridine-7-carboxamide] | < 100 nM | inhibited | – |
| COC(C)(C)CNC(=O)c1cc(C)n2c(CC3CCC(F)(F)CC3)c(C(F)(F)F)nc2c1 [Compound 79, 3-(4,4-Difluorocyclohexylmethyl)-N-(2-methoxy-2-methylpropyl)-5-methyl-2-trifluoromethylimidazo[1,2-a]pyridine-7-carboxamide] | < 100 nM | inhibited | – |
| O=C(NC1CCC1)c1ccn2c(CC3CCC(F)(F)CC3)c(C(F)(F)F)nc2c1 [Compound 50, N-Cyclobutyl-3-(4,4-difluorocyclohexylmethyl)-2-trifluoromethylimidazo[1,2-a]pyridine-7-carboxamide] | < 100 nM | inhibited | – |
| Cc1cc(C(=O)NC2CCCOC2)cc2nc(C(F)(F)F)c(CC3CCC(F)(F)CC3)n12 (stereo not shown) [Compound 76, 3-(4,4-Difluorocyclohexylmethyl)-5-methyl-N-(tetrahydro-2H-pyran-3-yl)-2-trifluoromethylimidazo[1,2-a]pyridine-7-carboxamide] | – | inhibited | < 100 nM |
| CC(C)c1nc2cc(C(=O)Nc3ccncc3)ccn2c1COC1CCCCC1 [Compound 24, 3-Cyclohexyloxymethyl-2-isopropyl-N-(pyridin-4-yl)imidazo[1,2-a]pyridine-7-carboxamide] | – | inhibited | < 100 nM |
| CC(C)(O)CNC(=O)c1cc(Cl)n2c(CC3CCC(F)(F)CC3)c(C(F)(F)F)nc2c1 [Compound 182, 5-Chloro-3-(4,4-difluorocyclohexylmethyl)-N-(2-hydroxy-2-methylpropyl)-2-trifluoromethylimidazo[1,2-a]pyridine-7-carboxamide] | < 100 nM | inhibited | – |
| Cc1cc(C(=O)NC2CCOC2)cc2nc(C(F)(F)F)c(CC3CCC(F)(F)CC3)n12 (stereo not shown) [Compound 73, 3-(4,4-Difluorocyclohexylmethyl)-5-methyl-N-(tetrahydrofuran-3-yl)-2-trifluoromethylimidazo[1,2-a]pyridine-7-carboxamide] | < 100 nM | inhibited | – |
| CC(C)(C)c1nc2cc(C(=O)NC3CCC3)ccn2c1CC1CCCCC1 [Compound 15, 2-tert-Butyl-N-cyclobutyl-3-cyclohexylmethylimidazo[1,2-a]pyridine-7-carboxamide] | < 100 nM | inhibited | – |
| Cc1cc(C(=O)NC2CCOCC2)cc2nc(C(C)C)c(CC3CCC(F)(F)CC3)n12 [Compound 101, 3-(4,4-Difluorocyclohexylmethyl)-2-isopropyl-5-methyl-N-(tetrahydro-2H-pyran-4-yl)imidazo[1,2-a]pyridine-7-carboxamide] | < 100 nM | inhibited | – |
| CC1(C)CC(NC(=O)c2cc(Cl)n3c(CC4CCC(F)(F)CC4)c(C(F)(F)F)nc3c2)CCO1 (stereo not shown) [Compound 105, 5-Chloro-3-(4,4-difluorocyclohexylmethyl)-N-(2,2-dimethyltetrahydro-2H-pyran-4-yl)-2-trifluoromethylimidazo[1,2-a]pyridine-7-carboxamide] | < 100 nM | inhibited | – |
| Cc1cc(C(=O)NCC2(C#N)CCOCC2)cc2nc(C(F)(F)F)c(CC3CCC(F)(F)CC3)n12 [Compound 84, N-{(4-Cyanotetrahydro-2H-pyran-4-yl)methyl}-3-(4,4-difluorocyclohexylmethyl)-5-methyl-2-trifluoromethylimidazo[1,2-a]pyridine-7-carboxamide] | < 100 nM | inhibited | – |
| Cc1cn2c(COC3CCCCC3)c(C(C)C)nc2cc1C(=O)Nc1ccncc1 [Compound 43, 3-Cyclohexyloxymethyl-2-isopropyl-6-methyl-N-(pyridin-4-yl)imidazo[1,2-a]pyridine-7-carboxamide] | < 100 nM | inhibited | – |
